Experimental data as given in ChEMBL document CHEMBL1201862, “PubChem BioAssay data set” (2004).
Activity calls are given as the source filed them. Cut-off read from the data, not from the text of the source: actives have a measured IC50 and inactives only a lower limit.

What was measured:
Type in all cases: functional
Caspase-3 = biological target: T1, Caspase-3 (Homo sapiens, UniProt P42574);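 note: Dose-response selectivity test against caspase-3 for candidate inhibitors of sentrin-specific proteases (SENPs)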
T1 sequence (P42574 whole entry): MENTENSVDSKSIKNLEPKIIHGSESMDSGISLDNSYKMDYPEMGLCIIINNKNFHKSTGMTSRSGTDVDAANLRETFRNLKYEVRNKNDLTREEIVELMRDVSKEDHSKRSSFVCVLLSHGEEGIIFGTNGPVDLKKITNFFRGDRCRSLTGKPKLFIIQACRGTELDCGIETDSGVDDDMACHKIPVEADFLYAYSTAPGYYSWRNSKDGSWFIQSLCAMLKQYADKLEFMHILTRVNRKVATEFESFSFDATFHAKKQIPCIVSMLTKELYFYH

[1] = biological target: T2, Sentrin-specific protease 7 (Homo sapiens, UniProt Q9BQF6);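 note: Luminescence-based dose-response confirmation of ultra-high-throughput screening hits, measuring inhibition of SENP7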
T2 sequence (Q9BQF6 whole entry): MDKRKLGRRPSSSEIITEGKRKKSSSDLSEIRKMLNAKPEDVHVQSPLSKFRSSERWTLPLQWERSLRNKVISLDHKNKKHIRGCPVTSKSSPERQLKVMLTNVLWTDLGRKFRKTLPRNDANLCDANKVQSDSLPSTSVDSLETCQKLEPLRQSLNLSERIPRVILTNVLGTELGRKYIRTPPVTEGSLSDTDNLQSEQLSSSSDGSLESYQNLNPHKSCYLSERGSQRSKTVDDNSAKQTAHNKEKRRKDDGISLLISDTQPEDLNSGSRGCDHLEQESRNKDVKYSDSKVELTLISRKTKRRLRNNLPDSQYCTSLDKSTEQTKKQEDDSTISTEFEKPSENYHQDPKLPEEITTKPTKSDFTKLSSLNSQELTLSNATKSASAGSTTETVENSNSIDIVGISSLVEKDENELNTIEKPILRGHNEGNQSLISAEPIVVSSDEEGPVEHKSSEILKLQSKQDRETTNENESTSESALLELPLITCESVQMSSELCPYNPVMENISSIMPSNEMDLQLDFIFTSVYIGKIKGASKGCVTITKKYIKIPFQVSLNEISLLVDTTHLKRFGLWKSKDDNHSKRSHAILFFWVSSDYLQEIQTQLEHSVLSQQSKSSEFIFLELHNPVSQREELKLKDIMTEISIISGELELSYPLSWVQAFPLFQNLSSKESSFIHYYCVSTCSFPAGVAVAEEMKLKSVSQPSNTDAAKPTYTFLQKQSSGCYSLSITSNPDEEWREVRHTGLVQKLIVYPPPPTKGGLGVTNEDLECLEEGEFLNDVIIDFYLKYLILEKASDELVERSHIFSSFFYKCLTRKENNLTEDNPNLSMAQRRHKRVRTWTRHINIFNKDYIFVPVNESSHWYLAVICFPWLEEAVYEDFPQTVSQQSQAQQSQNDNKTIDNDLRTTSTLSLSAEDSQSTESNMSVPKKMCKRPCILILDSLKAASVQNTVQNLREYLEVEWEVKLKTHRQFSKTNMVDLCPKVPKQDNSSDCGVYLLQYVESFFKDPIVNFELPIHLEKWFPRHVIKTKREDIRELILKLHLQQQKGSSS

[2] = biological target: T3, Sentrin-specific protease 6 (Homo sapiens, UniProt Q9GZR1);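 note: Luminescence-based dose-response confirmatory assay of SENP6 inhibition, following up an ultra-high-throughput screen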
T3 sequence (Q9GZR1 whole entry): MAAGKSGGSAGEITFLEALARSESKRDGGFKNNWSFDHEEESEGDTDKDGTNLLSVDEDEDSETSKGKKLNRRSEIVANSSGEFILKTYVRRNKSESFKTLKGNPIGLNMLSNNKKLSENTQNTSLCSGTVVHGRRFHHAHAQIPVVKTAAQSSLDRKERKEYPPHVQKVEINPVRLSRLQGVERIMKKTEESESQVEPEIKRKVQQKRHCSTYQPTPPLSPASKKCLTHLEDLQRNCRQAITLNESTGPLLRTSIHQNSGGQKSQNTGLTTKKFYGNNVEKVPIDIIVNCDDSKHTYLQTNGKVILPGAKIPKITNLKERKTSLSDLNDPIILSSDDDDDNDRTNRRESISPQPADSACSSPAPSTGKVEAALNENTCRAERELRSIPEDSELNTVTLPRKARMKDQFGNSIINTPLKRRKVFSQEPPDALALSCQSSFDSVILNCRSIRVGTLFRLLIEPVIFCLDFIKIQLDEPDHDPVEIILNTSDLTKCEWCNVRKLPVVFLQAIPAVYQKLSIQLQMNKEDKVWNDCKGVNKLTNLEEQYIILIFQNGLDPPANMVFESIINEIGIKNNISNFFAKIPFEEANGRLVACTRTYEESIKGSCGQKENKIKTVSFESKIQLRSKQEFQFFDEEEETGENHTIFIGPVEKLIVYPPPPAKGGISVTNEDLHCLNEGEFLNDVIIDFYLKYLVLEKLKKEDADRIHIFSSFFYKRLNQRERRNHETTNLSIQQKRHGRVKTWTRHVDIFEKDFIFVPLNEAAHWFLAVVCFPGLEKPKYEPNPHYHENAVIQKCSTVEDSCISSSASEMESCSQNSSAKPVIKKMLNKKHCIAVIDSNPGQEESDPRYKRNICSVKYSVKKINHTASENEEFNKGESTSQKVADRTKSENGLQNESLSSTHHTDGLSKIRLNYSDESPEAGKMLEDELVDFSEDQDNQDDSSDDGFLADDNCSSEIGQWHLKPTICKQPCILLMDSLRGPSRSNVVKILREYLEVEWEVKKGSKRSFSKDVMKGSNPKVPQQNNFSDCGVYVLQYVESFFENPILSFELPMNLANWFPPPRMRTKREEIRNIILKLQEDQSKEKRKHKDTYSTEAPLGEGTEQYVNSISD

| SMILES | IC50 (Caspase-3) | IC50 [1] | IC50 [2] |
| --- | --- | --- | --- |
| Cc1cccc(N=Nc2ccc(N(C)C)cc2)c1 | 5.57 µM (active) | 2.52 µM (active) | 4.4 µM (active) |
| COc1ccccc1N1C(=O)Cc2ccccc2C1=O | 4.61 µM (active) | 31.2 µM (active) | 10.6 µM (active) |
| Oc1ccccc1/C=C/c1noc(-c2ccccc2O)n1 | 39.7 µM (active) | 3.46 µM (active) | > 100 µM (inactive) |
